20 compounds from patent US8119681B2, “2-[1-phenyl-5-hydroxy or methoxy-4alpha-methyl-hexahydrocyclopenta [ƒ]indazole-5-YL]ethyl phenyl derivatives as glucocorticoid receptor ligands” (Merck Sharp & Dohme Corp., priority 2006, dated 2012) can be followed below.

Structures are written as SMILES.

For this experiment, the target named is T1, human GR (Homo sapiens, UniProt P04150).
T1 sequence (P04150 1-777): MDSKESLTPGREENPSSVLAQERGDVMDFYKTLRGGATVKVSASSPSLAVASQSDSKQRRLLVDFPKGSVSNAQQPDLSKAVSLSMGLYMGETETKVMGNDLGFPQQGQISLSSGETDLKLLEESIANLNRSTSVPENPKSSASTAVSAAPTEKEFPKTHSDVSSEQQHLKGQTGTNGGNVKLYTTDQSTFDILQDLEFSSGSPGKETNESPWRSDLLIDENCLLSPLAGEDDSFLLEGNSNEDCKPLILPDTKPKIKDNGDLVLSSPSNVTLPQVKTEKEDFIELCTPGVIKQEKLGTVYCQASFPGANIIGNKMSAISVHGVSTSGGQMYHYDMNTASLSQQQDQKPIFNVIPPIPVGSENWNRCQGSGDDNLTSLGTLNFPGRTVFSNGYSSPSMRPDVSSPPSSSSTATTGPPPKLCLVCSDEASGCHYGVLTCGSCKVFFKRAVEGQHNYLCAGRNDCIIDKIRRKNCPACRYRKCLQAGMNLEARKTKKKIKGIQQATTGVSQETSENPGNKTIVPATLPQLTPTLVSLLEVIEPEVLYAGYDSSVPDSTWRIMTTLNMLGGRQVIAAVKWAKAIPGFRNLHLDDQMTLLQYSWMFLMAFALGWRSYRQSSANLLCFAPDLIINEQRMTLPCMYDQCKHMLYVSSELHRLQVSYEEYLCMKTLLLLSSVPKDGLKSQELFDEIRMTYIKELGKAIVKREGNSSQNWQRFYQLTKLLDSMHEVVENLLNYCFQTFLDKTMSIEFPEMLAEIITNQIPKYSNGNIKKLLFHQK
Kind of experiment: Transrepression Assay (GITAR), TNFα-β-lactamase reporter gene in U937 cells. In kind it is cell-based. More on the design: U937 cells contain an endogenous glucocorticoid receptor (GR); endogenous in cells; host or cells: U937 cells stably transfected with the TNF-α promoter/β-lactamase reporter only. To be noted: U-937; 100 nM dexamethasone = 100% activity; read-out: maximal activity in the transrepression assay. An outline of the steps: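 Reporter readout used CCF2-AM loading for 70–90 min at room temperature after overnight (~18 h, 37 °C) PMA (5 ng/ml final) and LPS (100 ng/ml final) stimulation of compound-treated (30–45 min) TNFα-β-lactamase U937 cells expressing native GR. Activity was normalised to 100 nM dexamethasone repression.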
(Reporter assays use an easily measured gene product as a stand-in for the process of interest.)
On to `C[C@]12Cc3cnn(-c4ccc(F)cc4)c3C=C1CC[C@@]2(O)CCc1cc(F)ccc1C(N)=O` [Example 166, 4-fluoro-2-{2-[(4αS,5R)-1-(4-fluorophenyl)-5-hydroxy-4α-methyl-1,4,4α,5,6,7-hexahydrocyclopenta[f]indazol-5-yl]ethyl}benzamide], for which the Emax fell in the range of 5 to 100%.
The result for `C[C@]12Cc3cnn(-c4ccccc4)c3C=C1CC[C@@]2(O)CCc1cccc(F)c1C(N)=O` [Example 167, 2-fluoro-6-{2-[(4αS,5R)-5-hydroxy-4α-methyl-1-phenyl-1,4,4α,5,6,7-hexahydrocyclopenta[f]indazol-5-yl]ethyl}benzamide] reads 5 to 100%.
For `C[C@]12Cc3cnn(-c4ccc(F)cc4)c3C=C1CC[C@@]2(O)CCc1cccc(Cl)c1C(N)=O` [Example 169, 2-chloro-6-{2-[(4αS,5R)-1-(4-fluorophenyl)-5-hydroxy-4α-methyl-1,4,4α,5,6,7-hexahydrocyclopenta[f]indazol-5-yl]ethyl}benzamide], the Emax lay in the range of 5 to 100%.
For `C[C@]12Cc3cnn(-c4ccc(F)cc4)c3C=C1CC[C@@]2(O)CCc1cc(Cl)ccc1C(N)=O` [Example 171, 4-chloro-2-{2-[(4αS,5R)-1-(4-fluorophenyl)-5-hydroxy-4α-methyl-1,4,4α,5,6,7-hexahydrocyclopenta[f]indazol-5-yl]ethyl}benzamide], the Emax is 5 to 100%.
The result for `C[C@]12Cc3cnn(-c4ccc(F)cc4)c3C=C1CC[C@@]2(O)CCc1cc(C(F)(F)F)ccc1C(N)=O` [Example 173, 2-{2-[(4α6,5R)-1-(4-fluorophenyl)-5-hydroxy-4α-methyl-1,4,4α,5,6,7-hexahydrocyclopenta[f]indazol-5-yl]ethyl}-4-(trifluoromethyl)benzamide] reads 5 to 100%; that for `C[C@]12Cc3cnn(-c4ccc(F)cc4)c3C=C1CC[C@@]2(O)CCc1ccc(C(F)(F)F)cc1C(N)=O` [Example 175, 2-{2-[(4αS,5R)-1-(4-fluorophenyl)-5-hydroxy-4α-methyl-1,4,4α,5,6,7-hexahydrocyclopenta[f]indazol-5-yl]ethyl}-5-(trifluoromethyl)benzamide], 5 to 100%; that for `C[C@]12Cc3cnn(-c4ccc(F)c(F)c4)c3C=C1CC[C@@]2(O)CCc1cccc(Cl)c1C(N)=O` [Example 176, 2-chloro-6-{2-[(4αS,5R)-1-(3,4-difluorophenyl)-5-hydroxy-4α-methyl-1,4,4α,5,6,7-hexahydrocyclopenta[f]indazol-5-yl]ethyl}benzamide], 5 to 100%.
The value for `C[C@]12Cc3cnn(-c4ccc(F)c(F)c4)c3C=C1CC[C@@]2(O)CCc1cc(Cl)ccc1C(N)=O` [Example 177, 4-chloro-2-{2-[(4αS,5R)-1-(3,4-difluorophenyl)-5-hydroxy-4α-methyl-1,4,4α,5,6,7-hexahydrocyclopenta[f]indazol-5-yl]ethyl}benzamide] was 5 to 100%.
Take `C[C@]12Cc3cnn(-c4ccc(F)cc4)c3C=C1CC[C@@]2(O)CCc1cc(F)c(F)cc1C(N)=O` [Example 178, 4,5-difluoro-2-{2-[(4αS,5R)-1-(4-fluorophenyl)-5-hydroxy-4α-methyl-1,4,4α,5,6,7-hexahydrocyclopenta[f]indazol-5-yl]ethyl}benzamide]: the Emax lay in the range of 5 to 100%.
The result for `CO[C@@]1(CCc2ccc(C(F)(F)F)cc2C(N)=O)CCC2=Cc3c(cnn3-c3ccc(F)cc3)C[C@@]21C` [Example 179, 2-{2-[(4αS,5R)-1-(4-fluorophenyl)-5-methoxy-4α-methyl-1,4,4α,5,6,7-hexahydrocyclopenta[f]indazol-5-yl]ethyl}-5-(trifluoromethyl)benzamide] reads 5 to 100%; that for `C[C@]12Cc3cnn(-c4ccc(F)cc4)c3C=C1CC[C@@]2(O)CCc1ccc(C#N)cc1C(N)=O` [Example 180, 5-cyano-2-{2-[(4αS,5R)-1-(4-fluorophenyl)-5-hydroxy-4α-methyl-1,4,4α,5,6,7-hexahydrocyclopenta[f]indazol-5-yl]ethyl}benzamide], 5 to 100%; that for `Cc1ccc(CC[C@]2(O)CCC3=Cc4c(cnn4-c4ccc(F)cc4)C[C@@]32C)c(C(N)=O)c1` [Example 181, 2-{2-[(4αS,5R)-1-(4-fluorophenyl)-5-hydroxy-4α-methyl-1,4,4α,5,6,7-hexahydrocyclopenta[f]indazol-5-yl]ethyl}-5-methylbenzamide], 5 to 100%.
As for `Cc1cccc(CC[C@]2(O)CCC3=Cc4c(cnn4-c4ccc(F)cc4)C[C@@]32C)c1C(N)=O` [Example 182, 2-{2-[(4αS,5R)-1-(4-fluorophenyl)-5-hydroxy-4α-methyl-1,4,4α,5,6,7-hexahydrocyclopenta[f]indazol-5-yl]ethyl}-6-methylbenzamide], the Emax was 5 to 100%.
The result for `C[C@]12Cc3cnn(-c4ccc(F)cc4)c3C=C1CC[C@@]2(O)CCc1ccc(F)c(F)c1C(N)=O` [Example 183, 2,3-difluoro-6-{2-[(4αS,5R)-1-(4-fluorophenyl)-5-hydroxy-4α-methyl-1,4,4α,5,6,7-hexahydrocyclopenta[f]indazol-5-yl]ethyl}benzamide] reads 5 to 100%; that for `C[C@]12Cc3cnn(-c4ccc(Cl)cc4)c3C=C1CC[C@@]2(O)CCc1ccccc1C(N)=O` [Example 184, 2-{2-[(4αS,5R)-1-(4-chlorophenyl)-5-hydroxy-4α-methyl-1,4,4α,5,6,7-hexahydrocyclopenta[f]indazol-5-yl]ethyl}benzamide], 5 to 100%.
For `Cc1cccc(CC[C@]2(O)CCC3=Cc4c(cnn4-c4ccc(F)c(F)c4)C[C@@]32C)c1C(N)=O` [Example 186, 2-{2-[(4αS,5R)-1-(3,4-difluorophenyl)-5-hydroxy-4α-methyl-1,4,4α,5,6,7-hexahydrocyclopenta[f]indazol-5-yl]ethyl}-6-methylbenzamide], the Emax fell in the range of 5 to 100%.
The value for `C[C@]12Cc3cnn(-c4cccc(F)c4)c3C=C1CC[C@@]2(O)CCc1ccccc1C(N)=O` [Example 187, 2-{2-[(4αS,5R)-1-(3-fluorophenyl)-5-hydroxy-4α-methyl-1,4,4α,5,6,7-hexahydrocyclopenta[f]indazol-5-yl]ethyl}benzamide] was 5 to 100%; that for `C[C@]12Cc3cnn(-c4ccc(F)cc4)c3C=C1CC[C@@]2(O)CCc1cccc(C(F)(F)F)c1C(N)=O` [Example 188, 2-{2-[(4αS,5R)-1-(4-fluorophenyl)-5-hydroxy-4α-methyl-1,4,4α,5,6,7-hexahydrocyclopenta[f]indazol-5-yl]ethyl}-6-(trifluoromethyl)benzamide] was 5 to 100%; that for `C[C@]12Cc3cnn(-c4ccc(F)cc4)c3C=C1CC[C@@]2(O)CCc1ccc(-c2ccccc2)cc1C(N)=O` [Example 190, 4-{2-[(4αS,5R)-1-(4-fluorophenyl)-5-hydroxy-4α-methyl-1,4,4α,5,6,7-hexahydrocyclopenta[f]indazol-5-yl]ethyl}biphenyl-3-carboxamide] was 5 to 100%.
In the case of `C[C@]12Cc3cnn(-c4ccc(F)cc4)c3C=C1CC[C@@]2(O)CCc1ccccc1C(O)C(N)=O` (stereo partly drawn) [Example 192, 2-(2-{2-[(4αS,5R)-1-(4-fluorophenyl)-5-hydroxy-4α-methyl-1,4,4α,5,6,7-hexahydrocyclopenta[f]indazol-5-yl]ethyl}phenyl)-2-hydroxyacetamide], the Emax lay within 5 to 100%.
